Legend:
[1] = tested on: rat aortic rings; experiment: Acetylcholine-induced endothelium dependent relaxation of aortic rings in organ chamber; format: in vivo; settings: diabetic arteries; apocynin 3×10^−4 mol/l, Tiron 10 mmol/l
Description: In the experiments, with regard to the determination of endothelium dependent relaxation (EDR) in the aorta, EDR in response to various concentrations of acetylcholine (Ach) (10^−9 to 10^−6 mol/l) was assessed in norepinephrine (10^−7 mol/l) preconstructed rat aortic rings using an organ chamber bath. The effects of the NAD(P)H oxidase inhibitor apocynin (3×10^−4 mol/l) and the O2^− scavenger Tiron (10 mmol/l) on Ach-induced responses of diabetic arteries were also considered.

[2] = Cell viability after hydrogen peroxide (Cell Counting Kit-8), diabetic fibroblasts; format: cell-based, rat; settings: female, Coto Kakizaki (diabetic), rat, primary dermal fibroblasts from diabetic rats (DFs), DFs, 16 hours, read-out: loss in cell viability
Source text: To determine the effect of α-lipoic acid on isolated cells from normal and diabetic rats, primary rat fibroblasts were derived from dorsal skin biopsies performed on four diabetic Coto Kakizaki rats (DFs) and four age-matched (12-14 months) and sex-matched (female) Wistar control rats (CFs). After sterilization in povidine solution, the rat skin was washed in sterile water and rinsed in 70% ethanol in phosphate-buffered saline (PBS). The epidermis and dermis were separated following overnight incubation in 0.25% Trypsin/EDTA at 4° C. Samples were washed, diced and digested for thirty minutes at 37° C. in collagenase type I (250 U/ml) dissolved in Dulbecco's modified Eagle medium (DMEM; Invitrogen) containing penicillin (100 U/ml), 2 mM L-glutamine and 26 mM HEPES. After collagenase treatment, the cells were dislodged, centrifuged and resuspended in medium supplemented with 10% fetal bovine serum. The cells were grown under standard conditions, and the medium was changed every three to four days. Control and diabetic fibroblasts were grown under normo-glycemic conditions (5.5 mM glucose) and used in experiments at passage 3 to 5.
Fibroblasts were seeded at 1×10^4 cells/well on a 96-well plate. After a 24 hour incubation period, the cells were exposed to various concentrations of HP in serum-free medium at 37° C. for 2 hours [lactate dehydrogenase (LDH), a marker for necrotic cell death], or for 16 hours (cell viability). Quantification of cell viability was assessed using a Cell Counting Kit-8 (Dojindo, Kumamoto, Japan). The values obtained were normalized to the vehicle-treated cells. To measure the rate of necrotic cell death, an LDH release assay was performed using a CytoTox-ONE Homogeneous Membrane Integrity Assay kit (Promega). Expression of Nrf2 was inhibited by small-interfering RNA (siRNA) oligonucleotides. The sequences were designed and synthesized by Qiagen. The best silencing efficiency was obtained by incubating 2.0×10^5 cells/well in a 6-well plate with complexes formed by 5 nM siRNA (1 μl) and 9 μL of HiPerfect transfection reagent (Qiagen) dissolved in 90 μl medium, according to the manufacturer's instructions. The transfection was achieved by adding 0.9 ml of medium to the seeded cells followed by 100 μl of siRNA/HiPerfect complex. Knock-out efficiency was verified by real-time PCR and Western blot. Twenty-four hours later, 1 ml of fresh medium was added; 48 hr after transfection the cells were exposed to either vehicle or lipoic acid at a concentration of 500 μM.

[3] = tested on: aortic tissue; experiment: Aortic superoxide production, lucigenin-enhanced chemiluminescence; format: in vivo, rat; settings: inhibitor added 60 min before; diphenylene iodonium 0.1 mM, apocynin 3 mM
Description: In the study, with regard to measurement of vascular superoxide anion formation, O2^− concentration in aortic tissue was determined using a lucigenin-enhanced chemiluminescence method, and the resulting data were further confirmed by a cytochrome c-based technique. Segments of the thoracic aorta were placed into 2 ml Krebs-Henseleit buffer (KHB, pH 7.4), and prewarmed to 37° C. for one hour. Immediately before measurement, rings were transferred to scintillation vials containing KHB with 5 μmol/L lucigenin and the O2^− generated chemiluminescence was recorded for five minutes with a scintillation counter. The amount of O2^− produced was quantified using a standard curve of O2^− generation by xanthine/xanthine oxidase and the data are expressed as nmol per min, per mg, of wet weight. In some experiments, vessels were denuded of endothelium by gentle rubbing of the luminal surface, whereas in others, N^ω-nitro-L-arginine methyl ester (L-NAME) 0.1 mM, diphenylene iodonium 0.1 mM, or apocynin 3 mM were added 60 min before determining O2^− generation.

[4] = tested on: cultured arteries; experiment: Cultured arteries of non-diabetic control animals exposed to TNF-α; set-up: species or system rat; settings: arteries of non-diabetic control animals exposed to TNF-α
[5] = tested on: NAD(P)H oxidase; experiment: NAD(P)H oxidase activity in aortic homogenates (lucigenin photoemission); format: biochemical, rat; settings: inhibitor added to tissue homogenate
Description: Determination of NAD(P)H oxidase activity in the aorta was determined based on superoxide induced lucigenin photoemission. Enzyme assays were carried out in a final volume of 1 ml. containing (in mM) 50 phosphate buffer; pH 7.0, 1 EGTA, 150 sucrose, 0.5 lucigenin, 0.1 NAD(P)H and tissue homogenate. Enzyme reactions were initiated with the addition of lucigenin. Photoemission, expressed in terms of relative light units (RLU), was measured every 5 min. using a luminometer. All assays were carried out in the dark at room temperature.

O=S(=O)(O)c1cc(O)c(O)c(S(=O)(=O)O)c1 [tiron, Tiron]
Ach-induced relaxation in diabetic arteries [1]: improved

OO [HP, hydrogen peroxide]
cytotoxicity at 16 h, 37.5 uM ([2]; 37.5 uM HP): 17% | cytotoxicity at 16 h, 50 uM ([2]; 50 uM HP): 55% | cytotoxicity at 16 h, 75 uM ([2]; 75 uM HP): 78%

COc1cc(C(C)=O)ccc1O [apocynin]
Ach-induced relaxation in diabetic arteries [1]: improved | O2− production of aorta of GK diabetic rats [3]: inhibited

TNF-α
Ach-induced vasorelaxation [4]: impaired | caspase 3/7 activity [4]: elevated | levels of DNA fragmentation [4]: elevated | rate of O2− generation [4]: elevated

c1ccc2c(c1)[I+]c1ccccc1-2 [diphenyleneiodonium]
reduction of production of O2− in the homogenate [5]: > 95% | O2− production of aorta of GK diabetic rats [3]: inhibited

Source: patent US8735443B2, “Method of treating diabetes-related vascular complications” (Kuwait University, priority 2008, dated 2014)
